ChEMBL document CHEMBL4725390, “Asymmetrically Substituted Quadruplex-Binding Naphthalene Diimide Showing Potent Activity in Pancreatic Cancer Models” (ACS Med Chem Lett, 2020)
Active and inactive are the calls of the source. No cut-off for these calls is given here.

What was measured:
Quadruplex DNA = assay: Binding affinity to G4 quadruplex DNA in human PANC1 cells assessed as increase in number of BG4 foci at 100 nM after 24 hrs by immunofluorescence based confocal microscopic analysis; assay type: cell-based; settings: PANC-1
BXPC-3 = assay: Antiproliferative activity against human BxPC3 cells assessed as growth inhibition after 96 hrs by SRB assay; assay type: functional
[1] = Half life in rat at 1 mg/kg, iv administered as single dose; assay type: ADME, organism-based; settings: in vivo
MIA PaCa-2 [2] = assay: Antiproliferative activity against human MIAPaCa2 cells assessed as growth inhibition after 96 hrs by SRB assay; assay type: functional
[3] = Volume of distribution at steady state in mouse xenografted with human MIAPaCa2 cells at 0.96 mg/kg, iv administered as single dose; assay type: ADME, organism-based; settings: in vivo, read-out: Vdss
[4] = Apparent volume of distribution in mouse xenografted with human MIAPaCa2 cells at 0.96 mg/kg, iv administered as single dose; assay type: ADME, organism-based; settings: in vivo, read-out: Vz
[5] = Cmax in mouse xenografted with human MIAPaCa2 cells at 0.96 mg/kg, iv administered as single dose; assay type: ADME, organism-based; design: route intravenous, dose 0.96 mg/kg; settings: in vivo
MIA PaCa-2 [6] = assay: Antitumor activity against human MIAPaCa2 cells xenografted in mouse assessed as mean tumor volume at 1 mg/kg, iv administered once per week for 28 days and measured at day 28 by Caliper method (reference value: 0.45 +/- 0.18 cm3); assay type: functional; settings: time 28 day
MIA PaCa-2 [7] = assay: Antitumor activity against human MIAPaCa2 cells xenografted in mouse assessed as mean tumor volume at 1 mg/kg, iv administered twice per week for 28 days and measured at day 28 by Caliper method (reference value: 0.45 +/- 0.18 cm3); assay type: functional; settings: time 28 day
MIA PaCa-2 [8] = assay: Antitumor activity against human MIAPaCa2 cells xenografted in mouse assessed as mean tumor volume at 1 mg/kg, iv administered twice per week for 28 days and measured at day 53 by Caliper method (reference value: 1.60 +/- 0.44 cm3); assay type: functional; settings: time 28 day
MIA PaCa-2 [9] = assay: Antitumor activity against human MIAPaCa2 cells xenografted in mouse assessed as change in tumor volume at 1 mg/kg, iv administered once per week for 28 days and measured at day 53 by Caliper method relative to control; assay type: functional; settings: time 28 day
MIA PaCa-2 [10] = assay: Antitumor activity against human MIAPaCa2 cells xenografted in mouse assessed as change in tumor volume at 1 mg/kg, iv administered twice per week for 28 days and measured at day 53 by Caliper method relative to control; assay type: functional; settings: time 28 day
[11] = Downregulation of AXIN1 mRNA expression in human MIAPaCa2 cells at 40 nM after 6 hrs by RNA sequencing analysis relative to control; assay type: functional, MIA PaCa-2
[12] = Downregulation of GLI1 mRNA expression in human MIAPaCa2 cells at 40 nM after 6 hrs by RNA sequencing analysis relative to control; assay type: functional, MIA PaCa-2
[13] = Downregulation of DVL1 mRNA expression in human MIAPaCa2 cells at 40 nM after 24 hrs by RNA sequencing analysis relative to control; assay type: functional, MIA PaCa-2
[14] = Downregulation of GLI1 mRNA expression in human MIAPaCa2 cells at 40 nM after 24 hrs by RNA sequencing analysis relative to control; assay type: functional, MIA PaCa-2
[15] = Downregulation of MAPK11 mRNA expression in human MIAPaCa2 cells at 40 nM after 24 hrs by RNA sequencing analysis relative to control; assay type: functional, MIA PaCa-2
[16] = Toxicity in mouse xenografted with human MIAPaCa2 cells assessed as effect on neuronal clinical signs at 1 mg/kg, iv administered once per week for 28 days; assay type: organism-based; settings: in vivo, 672 h, time 28 day
MIA PaCa-2 [17] = assay: Downregulation of axon guidance related gene expression in human MIAPaCa2 cells at 40 nM after 24 hrs by RNA sequencing analysis; assay type: functional, cell-based
MIA PaCa-2 [18] = assay: Downregulation of cell cycle associated gene expression in human MIAPaCa2 cells at 40 nM after 24 hrs by RNA sequencing analysis; assay type: functional, cell-based
MIA PaCa-2 [19] = assay: Downregulation of DNA replication associated gene expression in human MIAPaCa2 cells at 40 nM after 24 hrs by RNA sequencing analysis; assay type: functional, cell-based
MIA PaCa-2 [20] = assay: Downregulation of Rap1 signaling pathway related gene expression in human MIAPaCa2 cells at 40 nM after 24 hrs by RNA sequencing analysis; assay type: functional, cell-based
MIA PaCa-2 [21] = assay: Downregulation of Wnt signaling pathway related gene expression in human MIAPaCa2 cells at 40 nM after 24 hrs by RNA sequencing analysis; assay type: functional, cell-based
Mus musculus [22] = assay: Down regulation of MAPK11 expression in mouse xenografted with human MIAPaCa2 cells at 1 mg/kg, iv administered twice per week for 28 days and measured on day 28 by Western blot analysis; assay type: functional, organism-based; settings: time 28.0 day
[23] = Toxicity in mouse xenografted with human MIAPaCa2 cells assessed as effect on cardiac clinical signs at 1 mg/kg, iv administered twice per week for 28 days; assay type: organism-based; settings: in vivo, 672 h, time 28 day
Mus musculus [24] = assay: Effect on hTERT expression in mouse xenografted with human MIAPaCa2 cells at 1 mg/kg, iv administered twice per week for 28 days and measured on day 28 by Western blot analysis; assay type: functional, organism-based; settings: time 28.0 day
MIA PaCa-2 [25] = assay: Potency index, ratio of 2,7-bis(3-morpholinopropyl)-4-((2-(pyrrolidin-1-yl)ethyl)amino)benzo[lmn][3,8]phenanthroline-1,3,6,8(2H,7H)-tetraone IC50 to test compound IC50 for human MIAPaCa2 cells measured after 96 hrs by SRB assay; assay type: functional
CAPAN-1 = assay: Potency index, ratio of 2,7-bis(3-morpholinopropyl)-4-((2-(pyrrolidin-1-yl)ethyl)amino)benzo[lmn][3,8]phenanthroline-1,3,6,8(2H,7H)-tetraone IC50 to test compound IC50 for human Capan1 cells measured after 96 hrs by SRB assay; assay type: functional

**Q.** What does the source list for `O=C1c2cc(-c3ccc(CN4CCCC4)cc3)c3c4c(cc(NCCN5CCCC5)c(c24)C(=O)N1CCCN1CCOCC1)C(=O)N(CCCN1CCOCC1)C3=O` [QN-302]?
**A.** Activity (Quadruplex DNA): Active; GI50 (BXPC-3): 2.6 nM; half-life [1]: 36 h; GI50 (MIA PaCa-2 [2]): 1.3 nM; Vd [3]: 1.2 L/kg; Vd [4]: 6.9 L/kg; Cmax [5]: 4180 ng/mL; Activity (MIA PaCa-2 [6]): 0.08 cm3; Activity (MIA PaCa-2 [7]): 0.06 cm3; Activity (MIA PaCa-2 [8]): 0.15 cm3; Activity (MIA PaCa-2 [9]): -89.83%; Activity (MIA PaCa-2 [10]): -90.6%; log2FC [11]: 1.59; log2FC [12]: 0.66; log2FC [13]: 0.77; log2FC [14]: 1.84; log2FC [15]: 1.72; Activity [16]: Non-Toxic; inhibition (MIA PaCa-2 [17]): Active; inhibition (MIA PaCa-2 [18]): Active; inhibition (MIA PaCa-2 [19]): Active; inhibition (MIA PaCa-2 [20]): Active; inhibition (MIA PaCa-2 [21]): Active; inhibition (Mus musculus [22]): Active; Activity [23]: Non-Toxic; Activity (Mus musculus [24]): inactive; Ratio IC50 (MIA PaCa-2 [25]): 10; Ratio IC50 (CAPAN-1): 5
